The structures appear in SMILES notation.

The EC50 is the concentration that produces a half-maximal response. Read a high EC50 as a less potent agent.

This assay deals with T1, TcTRPA1 (Tribolium castaneum, UniProt A0A139WJZ5).
T1 sequence (A0A139WJZ5 1-1242): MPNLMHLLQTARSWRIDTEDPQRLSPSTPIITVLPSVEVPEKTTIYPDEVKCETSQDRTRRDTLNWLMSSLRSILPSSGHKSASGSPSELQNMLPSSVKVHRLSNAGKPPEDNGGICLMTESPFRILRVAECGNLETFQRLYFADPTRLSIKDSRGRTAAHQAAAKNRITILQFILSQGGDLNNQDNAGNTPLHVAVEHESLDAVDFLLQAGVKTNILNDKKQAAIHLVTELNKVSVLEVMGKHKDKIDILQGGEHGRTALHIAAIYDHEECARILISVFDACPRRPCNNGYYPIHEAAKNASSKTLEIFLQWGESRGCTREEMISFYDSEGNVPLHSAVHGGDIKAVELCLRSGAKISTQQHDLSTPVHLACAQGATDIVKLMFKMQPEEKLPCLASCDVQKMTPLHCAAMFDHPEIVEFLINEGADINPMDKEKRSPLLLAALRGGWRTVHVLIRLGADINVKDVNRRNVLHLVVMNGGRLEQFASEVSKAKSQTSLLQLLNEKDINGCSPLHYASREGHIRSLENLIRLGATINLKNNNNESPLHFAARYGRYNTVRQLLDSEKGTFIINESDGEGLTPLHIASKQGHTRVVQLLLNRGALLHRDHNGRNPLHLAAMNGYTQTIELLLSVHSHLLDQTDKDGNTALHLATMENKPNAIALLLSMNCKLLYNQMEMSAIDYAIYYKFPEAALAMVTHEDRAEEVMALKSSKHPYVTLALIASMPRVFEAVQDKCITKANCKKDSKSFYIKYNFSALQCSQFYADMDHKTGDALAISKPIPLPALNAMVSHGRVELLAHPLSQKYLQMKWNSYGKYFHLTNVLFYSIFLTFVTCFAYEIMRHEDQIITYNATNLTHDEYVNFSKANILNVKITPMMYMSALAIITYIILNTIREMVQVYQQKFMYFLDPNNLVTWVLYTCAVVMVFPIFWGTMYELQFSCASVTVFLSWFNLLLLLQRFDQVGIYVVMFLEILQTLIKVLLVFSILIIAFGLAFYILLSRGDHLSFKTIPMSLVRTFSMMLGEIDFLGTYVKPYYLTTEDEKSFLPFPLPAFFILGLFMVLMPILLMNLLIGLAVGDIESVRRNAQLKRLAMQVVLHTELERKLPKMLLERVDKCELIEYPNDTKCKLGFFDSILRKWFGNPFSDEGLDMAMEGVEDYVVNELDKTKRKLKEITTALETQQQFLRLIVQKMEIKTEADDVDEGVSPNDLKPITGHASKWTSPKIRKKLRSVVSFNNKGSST
As to the kind of experiment: Ca2+ influx fluorescence assay. The format is cell-based.

`CC(C)=CCCC(C)CC=O` (stereo not shown) [citronellal]: it took 69.7 µM to reach a half-maximal effect (EC50).

Values taken from PMC10407194 (Current Research in Insect Science, 2023).
